Measurements reported in US20130028849A1, “Agent For Stimulating The Expression of Loxl” (BASF Beauty Care Solutions France S.A.S., priority 2009, published 2013).
Several values for one entry are separate records, joined by “and”; a condition that tells them apart may be missing. Identical values can stand only once.

What was measured:
[1] = DPPH test (radical scavenger effect); assay type: biochemical; conditions: for radical scavenging activity (DPPH test), Mean: Example 8 series, in %; for anti-free-radicals effect (% vs negative control): DPPH test
MMP-2 = target: T1, MMP-2 (Homo sapiens, UniProt P08253); test: Anti-MMP activity, kinetic test with thiopeptide substrate, MMP-2; assay type: biochemical
T1 sequence (P08253 110-660): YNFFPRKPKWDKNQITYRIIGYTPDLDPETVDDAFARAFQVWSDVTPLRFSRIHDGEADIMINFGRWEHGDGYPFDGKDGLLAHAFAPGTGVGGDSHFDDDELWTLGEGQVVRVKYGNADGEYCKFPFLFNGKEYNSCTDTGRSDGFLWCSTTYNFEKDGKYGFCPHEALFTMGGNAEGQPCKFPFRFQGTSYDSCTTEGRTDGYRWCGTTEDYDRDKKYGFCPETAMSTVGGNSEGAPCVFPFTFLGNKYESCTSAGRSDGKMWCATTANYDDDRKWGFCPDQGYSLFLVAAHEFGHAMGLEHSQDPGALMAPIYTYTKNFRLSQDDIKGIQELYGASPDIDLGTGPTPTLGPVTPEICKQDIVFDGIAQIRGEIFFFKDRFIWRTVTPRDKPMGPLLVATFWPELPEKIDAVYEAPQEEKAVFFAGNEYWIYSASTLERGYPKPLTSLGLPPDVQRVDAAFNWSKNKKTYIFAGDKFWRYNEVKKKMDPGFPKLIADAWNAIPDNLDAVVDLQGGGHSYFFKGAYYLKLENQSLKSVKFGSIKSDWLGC
Method: (§1) Anti-MMP activity was evaluated on matrix metalloproteases MMP-2 and MMP-12.
(§2) The substrat of MMPs is thiopeptide [Ac-PLG-2mercapto-4-methyl-pentanoyl)-LG-OC2H5] (EnzoLifeSciences, P125-9090). The test is carried out in 96-well plates. Different medium are prepared: A <> containing assay buffer and the substrate—Value obtained with blank was deduced from all other conditions. Positive control, NNGH (EnzoLifeSciences, PI 115-9090), which is metalloproteinase inhibitor, diluted at 1/200 in assay buffer. Untreated control, containing assay buffer, MMP and the substrate: this corresponds to 100% MMP activity.
(§3) Other conditions contain assay buffer, MMP, the substrate and the solution to be tested. After 45 min preincubation at 37° C. (to get interaction between MMP and tested product: tested solution or positive control), substrate is added and plate is immediately placed in Plate reader for kinetic measurement of absorbance at 405 nm (maximum absorbance of coloured product resulting from degradation of substrate by MMP). Full plate is read each minute during 20 minutes. After 20 min, a curve reflecting kinetic evolution of MMPs activity is obtained.
(§4) In the linear phase, the slope of the curve provides with MMP activity. The percentage inhibition was calculated with respect to the untreated control according to the formula:
(§5) Inhibition percentage=100−((slope of tested product/Mean of the untreated control slopes)*100)
(§6) This test was performed on MMP-2 and MMP-12. Tested solution containing Geophila cordifiolia extract was obtained according to example 1c) and tested at different concentration.
(§7) Tests used were performed in the same conditions than above described with Geophila cordifolia. Extract of Geophila repens was obtained according to example 7a) and tested at different concentrations.

MMP-12 = MMP-12 (Homo sapiens, UniProt P39900); test: Anti-MMP activity, kinetic test with thiopeptide substrate, MMP-12; assay type: biochemical
Method: as §1, §2, §3, §4, §5, §6, §7

[2] = target: T2, HLE (Human Leucocyte Elastase) (Homo sapiens, UniProt P08246); test: HLE test (anti-elastase activity, cleavage of coloured peptide substrate); assay type: biochemical
T2 sequence (P08246 30-267): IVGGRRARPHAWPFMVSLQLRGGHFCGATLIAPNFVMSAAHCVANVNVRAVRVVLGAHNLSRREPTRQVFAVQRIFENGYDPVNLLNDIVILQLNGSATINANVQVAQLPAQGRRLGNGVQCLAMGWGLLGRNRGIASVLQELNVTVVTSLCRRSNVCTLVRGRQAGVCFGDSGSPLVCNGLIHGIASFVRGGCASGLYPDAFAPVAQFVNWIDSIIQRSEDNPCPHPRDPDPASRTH
Method: The anti-elastase activity was evaluated using HLE (Human Leucocyte Elastase). […] The principle of this test resides in measuring the degree of cleavage of a coloured peptide substrate by HLE.
The tested products were as follows: • the extract of the invention was prepared in accordance with Example 1a) tested at final concentrations of 0.5%, 1%, 2% and 3% (w/w); • a 0.01% (w/w) solution of ursolic acid was used as the positive inhibition control for inhibition; • no solution was used as the negative control (the reaction buffer for the enzyme replaces the tested product).
The percentage inhibition was calculated for each test product with respect to the negative control (=100% activity i.e. 0% inhibition).
as §7

type I collagen = test: Fluorescent immunostaining of type I collagen on monolayer cultured fibroblasts; assay type: cell-based, human; conditions: 50 μg/ml
Method: Immunofluorescence makes it possible to observe different markers expressed by cells via the use of antibody recognizing these markers. In first step, cells were fixed in cold methanol for 10 minutes. After washing with PBS, antigenic aspecific sites were then blocked for 1 hour with PBS-BSA 1% solution (Bovine serum albumin). Primary antibody diluted at 1% in PBS/BSA 1% was incubated with cells for 1 hour. On the negative control is added IgG control isotope (instead of primary antibody). The excess of anti-body which has not been attached is removed by 2 washings with PBS. Cells were incubated out of light with a solution of secondary antibodies able to recognize primary antibody. This secondary antibody being linked with fluorochrome (Alexa Fluor 488), it makes it possible to see protein with florescent microscopy. Cells were then gently washed 3 times with PBS, and slides covered with mounting medium containing DAPI (Vector®, Vectashield), a nuclear colouring agent. Slides were stored out of light to maintain fluorescence of fluorochrome and analysed with confocal microscopy. Antibodies used in this test were: • primary antibody: collagen 1: rabbit anti-human type I collagen, polyclonal, diluted 1/200 (Novotech 20111) • primary antibody: Isotype IgG1: rabbit IgG1 isotype, ready to use (Zymed Laboratories 08-6199) • secondary antibody: goat anti-rabbit IgG coupled with Alexa fluor 488, polyclonal, diluted 1/1000 (in Vitrogen A11008) Cells used for immunostaining were obtained from fibroblasts from donor […]. Geophila cordifolia obtained according to example 1c) was tested at 1% (diluted in water). Fluorescent Immunostaining of type I collagen on monolayer cultured fibroblasts treated with vegetal extract obtained from example 1c) (magnification 400×, scale bar=25 μm).

LOXL = test: Expression of LOXL gene by quantitative RT-PCR in normal human fibroblasts; assay type: cell-based; conditions: IL-1b treated fibroblasts, untreated non-irradiated = 1
Method: The expression of genes for elastin and LOXL was measured using quantitative RT-PCR under standard culture conditions or after irradiation with increasing doses of UVB or UVA. Their level of expression has been related to the number of cells using the housekeeping gene actin. Expression of the LOXL gene was also followed by quantitative RT-PCR under non-irradiated conditions after application for 24 hours of a Geophila cordifolia extract obtained according to process 1a) at 1%.
(§8) Normal human fibroblasts (NH F) cultivated in a FGM medium (fibroblast growth medium, Promocell) were exposed to a UV stress. A Fisher Bioblock type UVA or UVB source with an electric power of 0.3 mW/cm^2 was used. The UV dose was monitored using a radiometer (VLX 3W) and a CX-312 probe for UVB or a CX-365 probe for UVA. Various UV irradiation conditions were evaluated: For a wavelength of λ=312 nm (UVB) • UVB 5 mJ/cm^2, the exposure time was 30 seconds; • UVB 10 mJ/cm^2, the exposure time was 1 minute;
(§9) Total RNA from the monolayer culture was extracted with the SV96 Total RNA Isolation System® following the manufacturer's instructions. The total RNA was eluted in 100 μl of nuclease-free water and quantified using a spectrophotometer at 260 nm (Molecular Devices Spectramax 190). […]
A quantity of 50 ng of total RNA was amplified by Real Time RT-PCR (Quantitek Sybr Green® kit). […]

elastin = test: Expression of elastin gene by quantitative RT-PCR in normal human fibroblasts; assay type: cell-based; conditions: IL-1b treated fibroblasts, untreated non-irradiated = 1
Method: Their level of expression has been related to the number of cells using the housekeeping gene actin. Expression of the LOXL gene was also followed by quantitative RT-PCR under non-irradiated conditions after application for 24 hours of a Geophila cordifolia extract obtained according to process 1a) at 1%.
as §8, §9
A quantity of 50 ng of total RNA was amplified by Real Time RT-PCR (Quantitek Sybr Green® kit). The primers used in the RT-PCR experiments (semi-quantitative or real time) were as follows: […]

[3] = Lipid peroxidation test (TBARS assay, UV-induced peroxidation); assay type: biochemical; conditions: 1% (w/w)
Method: The radical scavenger effect was evaluated: • using the standard test with DPPH (1,1-diphenyl-2-picrylhydrazyl) the principle of which is the measurement of the bleaching induced in the presence of anti oxidants; • by the lipid peroxidation method. The TBArs technique means that malondialdehyde (MDA), one of the terminal products formed during the decomposition of polyunsaturated fatty acids mediated by free radicals, can be assayed. It is assayed by condensation in an acidic medium with hot thiobarbituric acid (TBA), thereby forming a pink chromogen which absorbs strongly between 530 and 535 nm. […] The intensity of the colour is directly proportional to the quantity of MDA. The inhibition of UV-induced peroxidation during incorporation of an active agent allows its anti-oxidizing potential to be calculated.
A 5% liposomal suspension was prepared in deionized water. […] A “blank” was also deposited on a non-irradiated control plate for the spectrophotometer reading (water), the non-irradiated positive control measurements and the non-irradiated test measurements (active agent tested at different concentrations). […]
The percentage inhibition was calculated for each test product with respect to the negative control (=100% of generated free radicals meaning 0% anti-free-radicals effect)

[4] = NNGH diluted at 1/200 in assay buffer
[5] = positive control, Example 8 series

Sequence of MMP-12 (P39900 106-470): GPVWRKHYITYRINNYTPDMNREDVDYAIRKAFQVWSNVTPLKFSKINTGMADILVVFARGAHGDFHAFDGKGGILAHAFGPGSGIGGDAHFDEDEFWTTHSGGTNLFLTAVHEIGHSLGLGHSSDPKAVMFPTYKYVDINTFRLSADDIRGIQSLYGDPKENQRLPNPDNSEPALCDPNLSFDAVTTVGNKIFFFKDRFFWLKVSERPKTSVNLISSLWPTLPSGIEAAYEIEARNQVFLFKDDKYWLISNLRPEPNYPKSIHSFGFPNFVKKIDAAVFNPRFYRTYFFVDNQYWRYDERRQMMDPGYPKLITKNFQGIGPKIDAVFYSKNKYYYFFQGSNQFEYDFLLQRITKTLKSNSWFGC

In the case of `N[C@@H](CS)C(=O)O` [Cysteine, cysteine], the “radical scavenging activity (DPPH test), Mean” value ([1]; 2.5 mg/l) is reported as 68.52, the “radical scavenging activity (DPPH test), Mean” value ([1]; 5 mg/l) is reported as 79.49 and the “anti-free-radicals effect (% vs negative control)” value ([1]; 2.5 mg/l) is reported as 47.6%. The “anti-free-radicals effect (% vs negative control)” value ([1]; 5 mg/l) was 83.1%.
For `COc1ccc(S(=O)(=O)N(CC(=O)NO)CC(C)C)cc1` [NNGH], the “MMP-2 inhibition, Mean (%)” value (MMP-2; [4]) was 73.43^+++ %, the “inhibition of MMP-2 activity (in words)” value (MMP-2; positive control, 1/200) was “strongly and significantly inhibits” and the “anti-MMP2 effect, mean” value (MMP-2; [5]) was 62.51. The “MMP-12 inhibition, Mean (%)” value (MMP-12; [4]) was 58.63^+++ %, the “inhibition of MMP-12 activity (in words)” value (MMP-12; positive control, 1/200) was “strongly and significantly inhibits” and the “anti-MMP 12 effect, mean” value (MMP-12; [5]) was 72.5825.
With `C[C@H]1[C@H](C)CC[C@]2(C(=O)O)CC[C@]3(C)C(=CC[C@@H]4[C@@]5(C)CC[C@H](O)C(C)(C)[C@@H]5CC[C@]43C)[C@H]12` [Ursolic acid, ursolic acid] the “HLE inhibition (%)” value ([2]; 0.01% (w/w)) was 85% and the “anti-elastase activity (HLE test), mean” value ([2]; 0.01%, Example 8 series) was 90.47.
For `O=C1O[C@H]([C@@H](O)CO)C(O)=C1O` [vitamin C], the “anisotropy of collagen type I fibres” value (type I collagen; day 3) was “high anisotropy”, the “type I collagen labelling” value (type I collagen; day 3) was “a fibrillar labelling, being more external to the cell” and the “anisotropy of collagen type I fibres” value (type I collagen; day 5) was “anisotropy is increased”. For the same molecule, the “type I collagen labelling” value (type I collagen; day 5) was “labelling is not so intense and fibres are more oriented in one way and thinner”.
For “IL-1b: IL-1b treatment group of fibroblasts in Table 6; not described in the method”, the “Gene/actin, LOXL” value (LOXL; single replicates) was 1.108 and 0.9779 and 1.139 and 1.246, the “Gene/actin, LOXL, Mean” value (LOXL) was 1.12 and the “Gene/actin, ELN” value (elastin; single replicates) was 11.02 and 28.48 and 10.07 and 9.393. For the same molecule, the “Gene/actin, ELN, Mean” value (elastin) was 14.74.
In the case of vitamin E, the “anti-free-radicals effect (% vs negative control)” value [3] is reported as 54.7%.
